Measurements taken from article PMC8071534, “Discovery of Potential, Dual-Active Histamine H3 Receptor Ligands with Combined Antioxidant Properties” (Molecules, 2021).
Several values for one entry are separate records, joined by “and”; a condition that tells them apart may be missing. Identical values can stand only once. Like-named read-outs stand apart in the source and are kept apart here.

Legend:
[1] = target: T1, human recombinant histamine H3R stably expressed in HEK-293 cells (Homo sapiens, UniProt Q9Y5N1); assay: [3H]Nα-methylhistamine hH3R displacement (radioligand depletion) binding assay; conditions: mean [95% confidence interval]
T1 construct: HEK-293 cells stably expressing the recombinant full length hH3R; expressed in transfected cells; crude membrane preparations
Description: Unbound radioligand was removed by three washing steps with ice-cold water.

[2] = DPPH free radical scavenging assay; conditions: for DPPH Assay (λ = 517 nm) Absorbance Decrease in 10^−4 mol/L Concentration [%] Mean ± SEM: 30 min incubation, vs solvent + reaction mixture blank
Protocol: (§1) In order to determine the possible antioxidant properties, selected compounds were tested in 2,2-diphenyl-1-picrylhydrazyl (DPPH) and ferric reducing antioxidant power (FRAP) assay with ascorbic acid as a reference compound (Table 2). For details, please refer to the Materials and Methods Section. Graphical representation of tests results can be found in Supplementary Material.
(§2) Antioxidant properties of compounds were tested in vitro in two different assays: the 2,2-diphenyl-1-picrylhydrazyl (DPPH) assay and the FeCl3 reduction activity assay (FRAP, ferric reducing antioxidant power). The tested compounds and ascorbic acid were dissolved in DMSO at the 10^−2 mol/L concentration, and in ethanol at the concentration of 10^−4 mol/L respectively. Moreover, 30% and 50% ascorbic acid activity cut-off for DPPH and FRAP assays respectively were set ad hoc.
DPPH is a molecule containing a stable free radical. The reduction of DPPH (purple) in ethanol solution takes place in the presence of a hydrogen-donating antioxidant due to the formation of the non-radical form of DPPH-H (yellow). This transformation results in color change from purple to yellow, which can be measured spectrophotometrically. Thus, the decrease in absorbance is proportional to the decrease in concentration of DPPH (free radical) and discoloration of reaction mixture indicates the scavenging of free radicals by a tested antioxidant.
In order to determine antioxidant capacity, 20 μL of the compound solutions (dissolved in 96% ethanol) was mixed with 180 μL of 0.3 mM ethanolic DPPH solution. The change in the absorbance was detected at 517 nm after 30 min of incubation. Results were expressed as percentage decrease in absorbance of the tested sample, compared to the sample containing the solvent + reaction mixture (blank with maximum concentration of the DPPH radical). L-ascorbic acid was used as a reference compound. Calculations were made using MS Excel, from the proportion where the change of absorbance in the vitamin C (vit. C) group was treated as 100%, according to Equation (1):(1) % activity of Vit.C=ΔAb×100/ΔAVit. C
Calculation of % Vit. C activity: ΔAb -the change in the absorbance of the test sample and ΔAVit. C is change in the absorbance of reference sample, or with vit. C.

[3] = FRAP (ferric reducing antioxidant power) assay; conditions: 10 min incubation, vs sample containing solvent
Protocol: as §1, §2
A modified method of Benzie and Strain [38] was adopted for the FRAP assay. The stock solutions included 300 mM acetate buffer (3.1 g of C2H3NaO2 × 3H2O and 16 mL of C2H4O2), pH 3.6, 10 mM TPTZ (2,4,6-tripyridyl-s-triazine) solution in 40 mM HCl, and 20 mM FeCl3 × 6H2O solution. The working solution was prepared by mixing 10 parts of acetate buffer, 1 part of TPTZ solution, and 1 part of FeCl3 × 6H2O solution. A portion of 180 μL of the FRAP solution was mixed with 20 μL of the tested compound solution and incubated at room temperature for 10 min in the dark. Readings of the color product (ferrous tripyridyl triazine complex) were then taken at 593 nm against ethanol. Results are expressed as an increase in absorbance of the test sample compared to a sample containing the solvent. L-ascorbic acid was used as reference compound.

rH3R = conditions: Figure 1; cited from earlier work
[4] = target: T1, human recombinant histamine H3R stably expressed in HEK-293 cells; set-up: method as in PMID 21237145, PMID 29960729; conditions: radioligand of the binding assay; read-out: KD of the radioligand at hH3R; cited from earlier work
hH3R = conditions: reference ligands, Figure 1; cited from earlier work
rσ2R = conditions: Figure 1; cited from earlier work
hσ1R = conditions: Figure 1; cited from earlier work
rVAChT = conditions: Figure 1; cited from earlier work
hBuChE = conditions: Figure 1; cited from earlier work
[5] = hH3R Ki [nM] x¯ [CI 95%], [3H]Nα-methylhistamine displacement, HEK-293 membranes
[6] = [3H]Nα-methylhistamine displacement, HEK-293 membranes, read-out: hH3R Ki [nM] x¯ [CI 95%]
[7] = hH3R Ki [nM] x¯ [CI 95%], values obtained using 0.025% HCl in binding buffer

T1 sequence (Q9Y5N1 whole entry): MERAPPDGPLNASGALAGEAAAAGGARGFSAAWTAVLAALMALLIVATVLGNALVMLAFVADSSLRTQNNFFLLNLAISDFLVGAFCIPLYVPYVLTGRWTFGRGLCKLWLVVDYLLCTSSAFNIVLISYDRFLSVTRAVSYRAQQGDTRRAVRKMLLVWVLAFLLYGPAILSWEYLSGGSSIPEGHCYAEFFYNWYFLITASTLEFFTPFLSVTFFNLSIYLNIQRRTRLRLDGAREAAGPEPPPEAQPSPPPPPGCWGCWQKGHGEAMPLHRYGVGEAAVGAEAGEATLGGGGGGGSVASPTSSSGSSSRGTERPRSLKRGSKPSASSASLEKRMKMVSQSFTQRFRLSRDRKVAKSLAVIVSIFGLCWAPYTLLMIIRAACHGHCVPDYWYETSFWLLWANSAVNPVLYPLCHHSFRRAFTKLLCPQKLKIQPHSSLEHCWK

| Compound | Ki [1, 5] | DPPH Assay (λ = 517 nm) Absorbance Decrease in 10^−4 mol/L Concentration [%] Mean ± SEM [2] | FRAP Assay (λ = 593 nm) Absorbance Increase in 10^−4 mol/L Concentration [%] Mean ± SEM [3] | melting point | Ki [1, 6] | other results |
| --- | --- | --- | --- | --- | --- | --- |
| O=C(O)C(=O)O.O=C(c1ccccc1)c1ccc(OCCCN2CCN(C(=O)C3CC3)CC2)cc1 [Compound 7, (4-(3-(4-Benzoylphenoxy)propyl)piperazin-1-yl)(cyclopropyl)methanone hydrogen oxalate] | 1330 nM | 6.23 ± 0.53% | 1.43 ± 0.32% | 167.3 to 168.6 °C |  |  |
| Clc1ccc(CCCOCCCN2CCCCC2)cc1 [Pitolisant, pitolisant] |  |  |  |  |  | Ki (rH3R): 17 nM |
| CC(=O)N1CCN(CCCOc2ccc(C(=O)c3ccc(F)cc3)cc2)CC1.O=C(O)C(=O)O [Compound 6, 1-(4-(3-(4-(4-Fluorobenzoyl)phenoxy)propyl)piperazin-1-yl)ethan-1-one hydrogen oxalate] | 1100 nM | 8.82 ± 0.12% | 0.79 ± 0.39% | 171.3 to 173.1 °C |  |  |
| O=C(c1ccc(F)cc1)c1ccc(OCCCN2CCN(c3ccc([N+](=O)[O-])cc3)CC2)cc1 [Compound 15, (4-Fluorophenyl)(4-(3-(4-(4-nitrophenyl)piperazin-1-yl)propoxy)phenyl)methanone] |  |  |  | 173.3 to 174.2 °C | 580 nM |  |
| O=C(O)C(=O)O.O=C(c1ccc(F)cc1)c1ccc(OCCCN2CCN(C(=O)C3CC3)CC2)cc1 [Compound 9, (4-(3-(4-(Cyclopropanecarbonyl)piperazin-1-yl)propoxy)phenyl)(4-fluorophenyl)methanone hydrogen oxalate] | 1670 nM | 7.70 ± 0.41% | 1.75 ± 0.22% | 181.1 to 182.7 °C |  |  |
| O=C(O)C(=O)O.O=C(c1ccc(Cl)cc1)c1ccc(OCCCN2CCN(C(=O)C3CC3)CC2)cc1 [Compound 8, (4-(3-(4-(4-Chlorobenzoyl)phenoxy)propyl)piperazin-1-yl)(cyclopropyl)methanone hydrogen oxalate] | > 1000 nM | 6.79 ± 0.51% | 0.48 ± 0.48% | 176.9 to 179.2 °C |  |  |
| CNCCc1cnc[nH]1 [[^3H]N^α-methylhistamine] |  |  |  |  |  | Kd [4]: 3.08 nM |
| COc1cccc(N2CCN(CCCOc3ccc(C(=O)c4ccc(Cl)cc4)cc3)CC2)c1.O=C(O)C(=O)O [Compound 17, (4-Chlorophenyl)(4-(3-(4-(3-methoxyphenyl)piperazin-1-yl)propoxy)phenyl)methanone hydrogen oxalate] |  | 4.88 ± 0.18% | 40.86 ± 0.98% | 100.2 to 102.4 °C |  | Ki [1, 7]: 518 nM and ~500 nM |
| CC(=O)c1ccc(N2CCN(CCCOc3ccc(C(=O)c4ccccc4)cc3)CC2)cc1 [Compound 10, 1-(4-(4-(3-(4-Benzoylphenoxy)propyl)piperazin-1-yl)phenyl)ethan-1-one] |  | 2.44 ± 0.97% | 3.66 ± 0.59% | 148.4 to 151.4 °C | 633 nM |  |
| O=C(c1ccc(Cl)cc1)c1ccc(OCCCN2CCN(c3ccc([N+](=O)[O-])cc3)CC2)cc1 [Compound 14, (4-Chlorophenyl)(4-(3-(4-(4-nitrophenyl)piperazin-1-yl)propoxy)phenyl)methanone] |  | 6.31 ± 1.14% | 0.22 ± 0.16% | 154.5 to 155.8 °C | 622 nM |  |
| O=C(c1ccccc1)c1ccc(OCCCN2CCN(c3ccc([N+](=O)[O-])cc3)CC2)cc1 [Compound 13, (4-(3-(4-(4-Nitrophenyl)piperazin-1-yl)propoxy)phenyl)(phenyl)methanone] |  |  |  | 182.3 to 183.9 °C | > 1000 nM |  |
| CC(=O)c1ccc(N2CCN(CCCOc3ccc(C(=O)c4ccc(Cl)cc4)cc3)CC2)cc1 [Compound 11, 1-(4-(4-(3-(4-(4-Chlorobenzoyl)phenoxy)propyl)piperazin-1-yl)phenyl)ethan-1-one] |  | 3.33 ± 0.45% | 3.34 ± 0.22% | 180.6 to 183.4 °C | > 1000 nM |  |
| Cn1nc(N2CCC(OC(=O)N3CCN(C4CCC4)CC3)CC2)ccc1=O [LML134] |  |  |  |  |  | Ki (hH3R): 12 nM |
| CC(=O)c1ccc(N2CCN(CCCOc3ccc(C(=O)c4ccc(F)cc4)cc3)CC2)cc1 [Compound 12, 1-(4-(4-(3-(4-(4-Fluorobenzoyl)phenoxy)propyl)piperazin-1-yl)phenyl)ethan-1-one] |  | 4.42 ± 0.33% | 2.70 ± 1.15% | 162 to 163.6 °C | 1010 nM |  |
| O=C1O[C@H]([C@@H](O)CO)C(O)=C1O [Ascorbic acid, L-ascorbic acid, reference compound] |  | 20.52 ± 0.51% | 344.20 ± 4.65% |  |  |  |
| CC(=O)N1CCN(CCCOc2ccc(C(=O)c3ccc(Cl)cc3)cc2)CC1 [Compound 5, 1-(4-(3-(4-(4-Chlorobenzoyl)phenoxy)propyl)piperazin-1-yl)ethan-1-one] |  |  |  |  | 1260 nM |  |
| COc1cccc(N2CCN(CCCOc3ccc(C(=O)c4ccc(F)cc4)cc3)CC2)c1.O=C(O)C(=O)O [Compound 18, (4-Fluorophenyl)(4-(3-(4-(3-methoxyphenyl)piperazin-1-yl)propoxy)phenyl)methanone hydrogen oxalate] | 715 nM | 6.35 ± 0.55% | 29.73 ± 0.39% | 127.4 to 129.7 °C |  |  |
| CC(=O)N1CCN(CCCOc2ccc(C(=O)c3ccccc3)cc2)CC1.O=C(O)C(=O)O [Compound 4, 1-(4-(3-(4-Benzoylphenoxy)propyl)piperazin-1-yl)ethan-1-one hydrogen oxalate] | 3650 nM |  |  | 136.8 to 140 °C |  |  |
| COc1cccc(N2CCN(CCCOc3ccc(C(=O)c4ccccc4)cc3)CC2)c1.O=C(O)C(=O)O [Compound 16, (4-(3-(4-(3-Methoxyphenyl)piperazin-1-yl)propoxy)phenyl)(phenyl)methanone hydrogen oxalate] |  | 12.37 ± 1.31% | 32.91 ± 0.81% | 143.6 to 146.1 °C |  | Ki [1, 7]: 592 nM; DPPH assay: % of ascorbic acid activity ([2]; compound 10^−4 mol/L vs ascorbic acid 10^−4 mol/L, calculated from Table 2): 60.28% and 50–60% |
| C#CCN(C)Cc1cc2cc(OCCCN3CCCCC3)ccc2n1C [Contilisant] |  |  |  |  |  | Ki (rσ2R): 326 nM; Ki (hσ1R): 65.2 nM; Ki (hH3R): 10.8 nM; Ki (rVAChT): 46.3 nM; IC50 (hBuChE): 1690 nM |
